Assay: Flow properties of co-milled blends, assessed visually
Type: physicochemical
Conditions: visual score between 1 and 6, where 6 is a free-flowing powder
Method: Flow properties were assessed visually, and given a score between 1 and 6, where 6 is a free-flowing powder.

Flow score: 1
SMILES: O=C(O)c1ccc(-n2nc(-c3ccccc3O)nc2-c2ccccc2O)cc1 [Deferasirox raw material, 4-[3,5-bis(2-hydroxyphenyl)-[1,2,4]triazol-1-yl]benzoic acid]

— patent US20090142395A1, “DEFERASIROX PHARMACEUTICAL COMPOSITIONS” (priority 2007, published 2009)
